We go through 4 compounds from ChEMBL document CHEMBL1151180, “Madhucosides A and B, protobassic acid glycosides from Madhuca indica with inhibitory activity on free radical release from phagocytes” (J Nat Prod, 2004).

In brackets after ≈: the same amount, converted by molar mass.

The nature of test [1]: Inhibition of superoxide production in PMNCs at 200 ug/mL by NBT reduction assay. Type of test: functional.
The next test concerns Neutrophil. Nature of the test: Inhibition of hypochlorous production in PMA-stimulated human neutrophils by luminol-enhanced chemiluminescence assay. Type of test: functional, cell-based.
Test [2] in a line: Inhibition of superoxide production in PMNCs by NBT reduction assay. Type of test: functional.

`C[C@@H]1O[C@@H](O[C@H]2[C@H](O)[C@@H](O[C@@H]3OC[C@@H](O)[C@H](O)[C@H]3O)[C@H](O[C@@H]3[C@@H](O)[C@H](C)O[C@@H](O[C@H]4[C@H](OC(=O)[C@]56CCC(C)(C)C[C@@H]5C5=CC[C@@H]7[C@@]8(C)C[C@H](O)[C@H](O)[C@@](C)(CO[C@@H]9O[C@H](CO)[C@@H](O)[C@H](O)[C@H]9O[C@@H]9OC[C@](O)(CO)[C@H]9O)[C@@H]8[C@H](O)C[C@@]7(C)[C@]5(C)CC6)OC[C@H](O)[C@@H]4O)[C@@H]3O)O[C@@H]2CO)[C@H](O)[C@H](O)[C@H]1O` yielded an inhibition at 200 µg/mL in test [1] of 16%. For the same compound, in the test on Neutrophil, the IC50 was determined as 144 µg/mL. Compound `O=C1O[C@H]([C@@H](O)CO)C(O)=C1O` [ASCORBIC ACID] showed an IC50 in test [2] of 14.1 µg/mL (≈ 80.1 µM). For the compound `CC(C)=C[C@H]1C[C@](C)(O)[C@H]2[C@H]3CC[C@@H]4[C@@]5(C)CC[C@H](O[C@@H]6O[C@H](CO)[C@@H](O)[C@H](O[C@@H]7O[C@H](CO)[C@@H](O)[C@H](O)[C@H]7O)[C@H]6O[C@@H]6O[C@@H](CO)[C@H](O)[C@H]6O)C(C)(C)[C@@H]5CC[C@@]4(C)[C@@]34CO[C@@]2(C4)O1` [BACOSIDE A3], in the test on Neutrophil, the half-maximal inhibitory concentration (IC50) was found to be 19.8 µg/mL. Turning to `O=c1c(O)c(-c2ccc(O)c(O)c2)oc2cc(O)cc(O)c12` [QUERCETIN], the half-maximal inhibitory concentration (IC50) in test [2] came out at 111 µg/mL (≈ 367 µM).
